USRE37556E1, “Superoxide radical inhibitor” (Otsuka Pharmaceutical Co., Ltd., priority 1990, dated 2002)
Structures can show the parent of a compound that is named as a salt.

Tested on: human neutrophilic leukocytes
Experiment: Inhibition of superoxide radical (O2-) generation in FMLP-stimulated human neutrophilic leukocytes (ferricytochrome C method)
Type: cell-based
From the text: (1) Activity for inhibiting the generation of superoxide radical (O2^−) in human neutrophilic leukocytes
That is, a whole blood obtained from a healthy adult and treated by anticoagulation method was subjected to a dextranhypotonic treatment to obtain leukocyte cells. The leukocyte cells were then subjected to a density gradient ultracentrifugation by Ficoll-Paque to obtain a neutrophilic leukocyte fraction.
O2^− generation was examined by the ferricytochrome C method in accordance with the method of B. N. Cronstein et al. [Journal of Experimental Medicine, vol. […] Each test compound was dissolved in dimethyl sulfoxide (DMSO); the solution was added to neutrophilic leukocytes before the addition of FMLP; then, the neutrophilic leukocytes were pre-incubated at 37° C.

[1] = Homo sapiens, Leukocyte, pH 7.4, Table 15, O2- generation, 3x10^-7 M FMLP, cytochalasin B, 37° C., pH 7.4
[2] = Table 15, O2- generation, 3x10^-7 M FMLP, cytochalasin B, 37° C., pH 7.4
[3] = Homo sapiens, Leukocyte, Table 16, comparative test present compounds vs prior art compounds, NE = not effective

Row | IC50 [1] [µM] | IC50 [2] [µM] | IC50 [3] [µM] | Structure (SMILES)
1 | 0.07 | – | – | COc1ccc(-c2nc(-c3ccc4[nH]c(=O)oc4c3)cs2)cc1OC [compound 55, 2-(3,4-Dimethoxyphenyl)-4-(2-oxobenzoxazol-6-yl)thiazole]
2 | – | 1 | – | Fc1ccc(-c2csc(-c3cccnc3)n2)cc1.Fc1ccc(-c2csc(-c3cccnc3)n2)cc1.Fc1ccc(-c2csc(-c3cccnc3)n2)cc1.[Cl][Fe][Cl] [compound 56, 2-(3-Pyridyl)-4-(4-fluorophenyl)thiazole-⅓ FeCl2 salt]
3 | 0.3 | – | – | COc1ccc(-c2nc(-c3ccc4[nH]c(=O)c(=O)[nH]c4c3)cs2)cc1OC [compound 57, 2-(3,4-Dimethoxyphenyl)-4-(2,3-dioxo-1,2,3,4-tetrahydro-quinoxalin-6-yl)thiazole]
4 | 1 | – | – | COc1ccc(C(=O)c2nc(-c3ccc4c(c3)CCC(=O)N4)cs2)cc1OC [compound 58, 2-(3,4-Dimethoxybenzoyl)-4-(3,4-dihydrocarbostyril-6-yl)thiazole]
5 | 0.08 | – | – | CCOc1ccc(-c2nc(-c3ccc4c(c3)CCC(=O)N4)cs2)cc1OCC [compound 59, 2-(3,4-Diethoxyphenyl)-4-(3,4-dihydrocarbostyril-6-yl)thiazole]
6 | 0.05 | – | – | COc1ccc(-c2nc(-c3ccccn3)cs2)cc1OC [compound 60, 2-(3,4-Dimethoxyphenyl)-4-(2-pyridyl)thiazole hydrochloride]
7 | 0.003 | – | – | CCOc1ccc(-c2nc(-c3cc(O)cc(O)c3)cs2)cc1OCC [compound 61, 4-(3,5-Dihydroxyphenyl)-2-(3,4-diethoxyphenyl)-thiazole]
8 | 0.03 | – | – | COc1ccc(-c2nc(-c3ccc(OS(=O)(=O)O)cc3)cs2)cc1OC [compound 63, 4-(4-Hydroxysulfonyloxyphenyl)-2-(3,4-dimethoxyphenyl)thiazole]
9 | 0.04 | – | – | CCOc1ccc(-c2nc(-c3ccc(O)cc3)cs2)cc1OCC [compound 64, 4-(4-Hydroxyphenyl)-2-(3,4-diethoxyphenyl)thiazole]
10 | 0.06 | – | – | CCOc1ccc(-c2nc(-c3ccc(O)c(NC(C)=O)c3)cs2)cc1OCC [compound 65, 4-(3-Acetylamino-4-hydroxyphenyl)-2-(3,4-diethoxyphenyl)thiazole]
11 | 0.06 | – | – | CCOc1ccc(-c2nc(-c3ccc(O)c(N)c3)cs2)cc1OCC [compound 66, 4-(4-Hydroxy-3-aminophenyl)-2-(3,4-diethoxyphenyl)thiazole dihydrochloride]
12 | 0.07 | – | – | CCOc1ccc(-c2nc(-c3ccc(C#N)cc3)cs2)cc1OCC [compound 67, 4-(4-Cyanophenyl)-2-(3,4-diethoxyphenyl)thiazole]
13 | 0.08 | – | – | CCCOc1cc(-c2nc(-c3ccc4c(c3)CCC(=O)N4)cs2)ccc1OC [compound 68, 4-(3,4-Dihydrocarbostyril-6-yl)-2-(4-methoxy-3-propoxy-phenyl)thiazole]
14 | 0.1 | – | – | CCOc1ccc(-c2nc(-c3ccc(C(=N)N)cc3)cs2)cc1OCC [compound 69, 4-(4-Amidinophenyl)-2-(3,4-diethoxyphenyl)thiazole hydrochloride]
15 | 0.2 | – | – | COc1ccc(-c2nc(-c3c(O)cc(O)cc3O)cs2)cc1OC [compound 70, 4-(2,4,6-Trihydroxyphenyl)-2-(3,4-dimethoxyphenyl) thiazole]
16 | 0.2 | – | – | COc1ccc(-c2nc(-c3cc(N)cc(N)c3)cs2)cc1OC [compound 71, 4-(3,5-Diaminophenyl)-2-(3,4-dimethoxyphenyl) thiazole dihydrochloride]
17 | 0.2 | – | – | CCOc1ccc(-c2nc(-c3ccc(N)cc3)cs2)cc1OCC [compound 72, 4-(4-Aminophenyl)-2-(3,4-diethoxyphenyl)thiazole hydrochloride]
18 | 0.2 | – | – | CCOc1ccc(-c2nc(C(O)c3ccc(OC)c(OC)c3)cs2)cc1OCC (stereo not shown) [compound 73, 4-[1-Hydroxy-1-(3,4-dimethoxyphenyl)methyl]-2-(3,4-diethoxyphenyl)thiazole]
19 | 0.3 | – | – | CCN1CCN(c2cc(-c3csc(-c4ccc(O)c(O)c4)n3)ccc2OC)CC1 [compound 74, 4-[4-Methoxy-3-(4-ethyl-1-piperazinyl)phenyl]-2-(3,4-dihydroxyphenyl)thiazole trihydrochloride]
20 | 0.6 | – | – | CCOc1ccc(-c2nc(-c3ccc(Cl)cc3)cs2)cc1OCC [compound 75, 4-(4-Chlorophenyl)-2-(3,4-diethoxyphenyl)thiazole]
21 | 0.6 | – | – | CC(=O)Oc1ccc(-c2csc(-c3cccnc3)n2)cc1OC(C)=O [compound 76, 4-(3,4-Diacetyloxyphenyl)-2-(3-pyridyl)thiazole]
22 | – | 0.8 | – | COC(=O)C1OC(Oc2ccc(-c3csc(-c4ccc(OC)c(OC)c4)n3)cc2)C(O)C(O)C1O [compound 77, Methyl 4-[2-(3,4-dimethoxyphenyl)thiazole-4-yl]phenyl-β-D-glucopyranosidouronate]

Row | IC50 [1] [µM] | IC50 [2] [µM] | IC50 [3] [µM] | Structure (SMILES)
23 | – | 1 | – | CCOc1ccc(-c2nc(-c3ccc(O[C@@H]4O[C@H](COC(C)=O)[C@@H](OC(C)=O)[C@H](OC(C)=O)[C@H]4OC(C)=O)cc3)cs2)cc1OCC [compound 78, 2-(3,4-Diethoxyphenyl)-4-[4-(2,3,4,6-tetra-0-acetyl-β-D-glucopyranosyloxy)phenyl]thiazole]
24 | 0.0013 | – | – | CCOc1ccc(-c2nc(-c3cc(OC(C)=O)cc(OC(C)=O)c3)cs2)cc1OCC [compound 79, 4-(3,5-Diacetyloxyphenyl)-2-(3,4-diethoxyphenyl) thiazole]
25 | 0.01 | – | – | CCOc1ccc(-c2nc(-c3ccc(O)c(C(=O)OC)c3)cs2)cc1OCC [compound 80, 4-(4-Hydroxy-3-methoxycarbonylphenyl)-2-(3,4-diethoxyphenyl)thiazole]
26 | 0.026 | – | – | CCOc1ccc(-c2nc(-c3ccc(OCC(=O)OC)c(C(=O)OC)c3)cs2)cc1OCC [compound 81, 4-(4-Methoxycarbonylmethoxy-3-methoxycarbonylphenyl)-2-(3,4-diethoxyphenyl)thiazole]
27 | 0.04 | – | – | C=CCc1cc(-c2csc(-c3ccc(OCC)c(OCC)c3)n2)cc(C(=O)O)c1O [compound 83, 4-(3-Carboxy-4-hydroxy-5-allylphenyl)-2-(3,4-diethoxyphenyl)thiazole]
28 | 0.02 | – | – | C=C(C)Cc1cc(-c2csc(-c3ccc(OCC)c(OCC)c3)n2)cc(C(=O)O)c1O [compound 84, 4-{3-Carboxy-4-hydroxy-5-(2-methyl-2-propenyl)-phenyl}-2-(3,4-diethoxyphenyl)thiazole]
29 | 0.08 | – | – | CCOc1ccc(-c2nc(-c3cc(C)c(O)c(C(=O)O)c3)cs2)cc1OCC [compound 85, 4-(3-Carboxy-4-hydroxy-5-methylphenyl)-2-(3,4-diethoxyphenyl)thiazole]
30 | 0.033 | – | – | CCOc1ccc(-c2nc(-c3ccc(O)c(C(=O)OC)c3)cs2)cc1OC [compound 86, 4-(3-Methoxycarbonyl-4-hydroxyphenyl)-2-(3-methoxy-4-ethoxyphenyl)thiazole]
31 | 0.0048 | – | 0.0048 | CCOc1ccc(-c2nc(-c3cccc(C(=O)O)c3)cs2)cc1OCC [compound 87, 4-(3-Carboxyphenyl)-2-(3,4-diethoxyphenyl)thiazole]
32 | 0.1 | – | 0.1 | CCOc1ccc(-c2nc(-c3ccc(O)c(C(=O)O)c3)cs2)cc1OC [compound 88, 4-(3-Carboxy-4-hydroxyphenyl)-2-(3-methoxy-4-ethoxyphenyl)thiazole]
33 | 0.007 | – | – | CCOc1ccc(-c2nc(-c3cc(N)c(O)c(C(=O)OC)c3)cs2)cc1OCC [compound 89, 4-(3-Amino-4-hydroxy-5-methoxycarbonylphenyl)-2-(3,4-diethoxyphenyl)thiazole]
34 | – | 0.008 | – | CCCc1cc(-c2csc(-c3ccc(OCC)c(OCC)c3)n2)cc(C(=O)O)c1O [compound 90]
35 | 0.023 | – | 0.023 | CCOc1ccc(-c2nc(-c3cc(C(=O)O)ccc3O)cs2)cc1OCC [compound 91, 4-(3-Carboxy-6-hydroxyphenyl)-2-(3,4-diethoxyphenyl)thiazole]
36 | – | – | 0.02 | CCOc1cc(-c2nc(-c3ccc(O)c(C(=O)O)c3)cs2)ccc1OC [compound 92, 4-(3-Carboxy-4-hydroxyphenyl)-2-(3-ethoxy-4-methoxyphenyl)thiazole]
37 | 0.012 | – | – | CCOc1ccc(-c2nc(-c3cc(CC(C)C)c(O)c(C(=O)O)c3)cs2)cc1OCC [compound 93, 4-(3-Carboxy-4-hydroxy-5-isobutylphenyl)-2-(3,4-diethoxyphenyl)thiazole]
38 | 0.0087 | – | – | CCOc1ccc(-c2nc(-c3cc(C(=O)O)c(N)cc3O)cs2)cc1OCC [compound 95, 4-(3-Carboxy-4-amino-6-hydroxyphenyl)-2-(3,4-diethoxyphenyl)thiazole]
39 | 0.023 | – | – | CCOc1ccc(-c2nc(-c3ccc(N)c(C(=O)O)c3)cs2)cc1OCC [compound 96, 4-(3-Carboxy-4-aminophenyl)-2-(3,4-diethoxyphenyl)-thiazole]
40 | 0.1 | – | – | CCOc1ccc(C2(c3ccc(OCC)c(OCC)c3)NC(c3ccc(OC(C)=O)c(C(=O)O)c3)=CS2)cc1OCC [compound 97, 4-(3-Carboxy-4-acetyloxyphenyl)-2-(3,4-diethoxyphenyl)-2-(3,4-diethoxyphenyl)thiazole]
41 | 0.083 | – | – | CCOc1ccc(-c2nc(-c3ccc(O)c(CC)c3)cs2)cc1OCC [compound 98, 4-(3-Ethyl-4-hydroxyphenyl)-2-(3,4-Diethoxyphenyl)thiazole]
42 | 0.72 | – | – | CCOc1ccc(-c2nc(-c3ccc(O)c(C(=O)O)c3)c(C)s2)cc1OCC [compound 99, 4-(3-Carboxy-4-hydroxyphenyl)-2-(3,4-diethoxyphenyl)-5-methylthiazole]
43 | 0.048 | – | – | CCOc1ccc(-c2nc(-c3cc(C(=O)O)c(O)cc3O)cs2)cc1OCC [compound 100, 4-(3-Carboxy-4,6-dihydroxyphenyl)-2-(3,4-diethoxyphenyl)thiazole]
